Assay results reported in paper PMC12505902, “Inhibitors of trehalose-6-phosphate synthase activity in fungal pathogens compromise thermal tolerance pathways” (mBio, 2025).

What was measured:
Assay type in all cases: cell-based
C. auris = assay: Fungicidal spot assay on compound-free YPD plates; details: 30°C and 39°C exposure
Description: (§1) We tested the effects of 4456dh on live cells by determining the minimal inhibitory concentration causing 80% growth reduction (MIC80). Wild-type (WT) C. albicans and C. auris cells were incubated with 4456dh in yeast-peptone-dextrose (YPD) medium at 42°C and 39°C, respectively (Fig. 4A). […] 4456dh inhibited the growth of C. auris with an MIC80 of 7 mM at 39°C (Fig. 4A). The MIC80 increased at 30°C to greater than 13 mM (Fig. S7A).
(§2) Fig 4 4456dh inhibits the growth of Candida and Cryptococcus species. Two-fold dose response assays were performed against (A) C. albicans at 42°C and C. auris at 39°C, (B) C. glabrata at 42°C, and (C) C. neoformans, C. deneoformans, and C. gattii at 37°C. 4456dh was administered at the concentrations indicated. […] Left: relative growth of treated samples was calculated by averaging technical triplicates and normalizing the OD600 of each treated well to the average OD600 of the untreated WT controls, after the absorbance due to the compound was subtracted. The MIC80 values, calculated based on the OD600 values, are indicated in the white text on each heat map. […]
(§3) 124 technical replicates. Growth, as determined by a reading of absorbance at 600 nm, was
(§4) 125 normalized to untreated controls and was corrected for the absorbance of 4456dh in the YPD […]
(§5) 129 overnight cultures was quantified by measuring the OD600 and corrected for the background
(§6) 130 absorbance of the medium. […]

C. albicans = assay: Fungicidal spot assay on compound-free YPD plates; details: 42°C exposure, then compound-free YPD plates
Description: as §1, §2, §3, §4, §5, §6

[1] = tested on: trehalose content of C. neoformans; assay: Trehalose measurement (colorimetric glucose assay after trehalase); details: 37°C, sublethal dose (0.5 mM 4456dh), P < 0.05; dose-dependent
Description: Fig 5 4456dh treatment results in reduced trehalose accumulation and a decrease in Tps1-dependent virulence factors. Trehalose accumulation measurements for C. albicans (A) and C. neoformans (B) cultured at indicated temperatures in the absence or presence of 0.5 mM 4456dh. Trehalose was measured using a colorimetric glucose assay after treatment of cultures with trehalase. Statistical comparisons were done with a one-way analysis of variance (ANOVA) analysis followed by a post hoc Tukey’s test. Error bars represent SE. (C) C. albicans WT strain SC5314 cells were treated with 0.5 mM, 1.0 mM, and 5 mM 4456dh. […] Cells were harvested, stained in India Ink, and analyzed using differential interference contrast imaging. […]
as §3, §4, §5
130 absorbance of the medium. Antifungal potency for 4456dh was assessed by minimum inhibitory […]
137 replicates. Growth, as determined by a reading of absorbance at 600 nm, was normalized to
138 untreated controls and was corrected for the absorbance of 4456dh in the YPD medium. […]
139 minimum inhibitory concentration causing 80% growth reduction, or MIC80, was determined based […]

Which results are given for `Cn1cc(-c2csc(NC(=O)Cc3ccccn3)n2)cn1` [Compound 4456dh]?
fungicidal activity (C. auris): fungicidal activity of 4456dh on C. auris was also detected; fungicidal activity (C. albicans): temperature-dependent fungicidal activity; change in trehalose [1]: significant decrease in trehalose
